Measured values as given in US5091367A, “Analogs of gonadoliberin with improved solubility, methods for their preparation, agents containing them and their use” (Hoechst Aktiengesellschaft, priority 1986, dated 1992).
Values after ≈ are worked out from the molar mass of the structure shown.

Experiments:
[1] = solubility in a neutral buffer used for nasal application; conditions: well compatible neutral buffer as used for nasal application of protirelin
[2] = system: rat super-ovulation; assay: biological activity in rat super-ovulation; format: in vivo

Row | Compound | Solubility in neutral nasal buffer [1] [mg/mL] | ED20-50 Super-ovul. [2] [ng/rat]
1 | CCNC(=O)[C@@H]1CCCN1C(=O)[C@H](CCCNC(=N)N)NC(=O)[C@H](CC(C)C)NC(=O)[C@@H](COC(C)(C)C)NC(=O)[C@H](Cc1ccc(O)cc1)NC(=O)[C@H](CO)NC(=O)[C@H](Cc1c[nH]c2ccccc12)NC(=O)[C@H](Cc1cnc[nH]1)NC(=O)[C@@H]1CCC(=O)N1 [Buserelin, Pgl--His--Trp--Ser--Tyr--D-Ser(tBu)--Leu--Arg--Pro--NH--C2 H5, reference compound] | 1.25 (≈ 1010 µM) | 3
2 | CCNC(=O)[C@@H]1CCCN1C(=O)[C@H](CCCNC(=N)N)NC(=O)[C@H](CC(C)C)NC(=O)[C@@H](Cc1c[nH]c2ccccc12)NC(=O)[C@H](Cc1ccc(O)cc1)NC(=O)[C@H](CO)NC(=O)[C@H](Cc1c[nH]c2ccccc12)NC(=O)[C@H](Cc1c[nH]cn1)NC(=O)[C@@H]1CCC(=O)N1 [LH--RH--T, Pgl--His--Trp--Ser--Tyr--D-Trp--Leu--Arg--Pro--NH--C2 H5, reference compound] | – | 3
3 | CCNC(=O)[C@@H]1CCCN1C(=O)[C@H](CCCNC(=N)N)NC(=O)[C@H](CC(C)C)NC(=O)[C@@H](CO[C@H]1O[C@H](CO)[C@@H](O)[C@H](O)[C@@H]1O)NC(=O)[C@H](Cc1ccc(O)cc1)NC(=O)[C@H](CO)NC(=O)[C@H](Cc1c[nH]c2ccccc12)NC(=O)[C@H](Cc1c[nH]cn1)NC(=O)[C@@H]1CCC(=O)N1 [Pgl-His-Trp-Ser-Tyr-D-Ser(α-D-Man)-Leu-Arg-Pro-NH-C2 H5] | 62.5 (≈ 46500 µM) | 6
4 | CCNC(=O)[C@@H]1CCCN1C(=O)[C@H](CCCNC(=N)N)NC(=O)[C@H](CC(C)C)NC(=O)[C@@H](CO[C@@H]1O[C@H](CO)[C@@H](O)[C@H](O)[C@H]1O)NC(=O)[C@H](Cc1ccc(O)cc1)NC(=O)[C@H](CO)NC(=O)[C@H](Cc1c[nH]c2ccccc12)NC(=O)[C@H](Cc1c[nH]cn1)NC(=O)[C@@H]1CCC(=O)N1 [Pgl-His-Trp-Ser-Tyr-D-Ser(β-D-Glc)-Leu-Arg-Pro-NH-C2 H5] | 125.0 (≈ 92900 µM) | 12
5 | CCNC(=O)[C@@H]1CCCN1C(=O)[C@H](CCCNC(=N)N)NC(=O)[C@H](CC(C)C)NC(=O)[C@@H](CO[C@H]1O[C@@H](C)[C@@H](O)[C@@H](O)[C@@H]1O)NC(=O)[C@H](Cc1ccc(O)cc1)NC(=O)[C@H](CO)NC(=O)[C@H](Cc1c[nH]c2ccccc12)NC(=O)[C@H](Cc1c[nH]cn1)NC(=O)[C@@H]1CCC(=O)N1 [Pgl-His-Trp-Ser-Tyr-D-Ser(β-L-Fuc)-Leu-Arg-Pro-NH-C2 H5] | 167.0 (≈ 126000 µM) | 6
6 | CCNC(=O)[C@@H]1CCCN1C(=O)[C@H](CCCNC(=N)N)NC(=O)[C@H](CO[C@H]1O[C@H](CO)[C@@H](O)[C@H](O)[C@@H]1O)NC(=O)[C@@H](Cc1c[nH]c2ccccc12)NC(=O)[C@H](Cc1ccc(O)cc1)NC(=O)[C@H](CO)NC(=O)[C@H](Cc1c[nH]c2ccccc12)NC(=O)[C@H](Cc1c[nH]cn1)NC(=O)[C@@H]1CCC(=O)N1 [Pgl-His-Trp-Ser-Tyr-D-Trp-Ser(α-D-Man)-Arg-Pro-NH-C2 H5] | 3.3 (≈ 2330 µM) | > 24
7 | CCNC(=O)[C@@H]1CCCN1C(=O)[C@H](CCCNC(=N)N)NC(=O)[C@H](CO[C@@H]1O[C@H](CO)[C@@H](O)[C@H](O)[C@H]1O)NC(=O)[C@@H](Cc1c[nH]c2ccccc12)NC(=O)[C@H](Cc1ccc(O)cc1)NC(=O)[C@H](CO)NC(=O)[C@H](Cc1c[nH]c2ccccc12)NC(=O)[C@H](Cc1c[nH]cn1)NC(=O)[C@@H]1CCC(=O)N1 [Pgl-His-Trp-Ser-Tyr-D-Trp-Ser(β-D-Glc)-Arg-Pro-NH-C2 H5] | 2.5 (≈ 1760 µM) | 6
8 | CCNC(=O)[C@@H]1CCCN1C(=O)[C@H](CCCNC(=N)N)NC(=O)[C@H](CO[C@H]1O[C@@H](C)[C@@H](O)[C@@H](O)[C@@H]1O)NC(=O)[C@@H](Cc1c[nH]c2ccccc12)NC(=O)[C@H](Cc1ccc(O)cc1)NC(=O)[C@H](CO)NC(=O)[C@H](Cc1c[nH]c2ccccc12)NC(=O)[C@H](Cc1c[nH]cn1)NC(=O)[C@@H]1CCC(=O)N1 [Pgl-His-Trp-Ser-Tyr-D-Trp-Ser(β-L-Fuc)-Arg-Pro-NH-C2 H5] | 2.5 (≈ 1780 µM) | > 200
9 | Pgl--His--Trp--Ser--Tyr--D-Trp--Ser(β-D-Gal)--Arg--Pro--NH--C2 H5 | 10 | –
10 | Pgl-His-Trp-Ser-Tyr-D-Ser(Ac-α-L-Rha)-Leu-Arg-Pro-NH-C2 H5 | 50.0 | 3
11 | Pgl-His-Trp-Ser-Tyr-D-Ser(Ac-β-L-Fuc)-Leu-Arg-Pro-NH-C2 H5 | 10.0 | 6
12 | Pgl-His-Trp-Ser-Tyr-D-Ser(D-Ara)-Leu-Arg-Pro-NH-C2 H5 | 125 | < 24
13 | Pgl-His-Trp-Ser-Tyr-D-Ser(D-Rib)-Leu-Arg-Pro-NH-C2 H5 | 10 | < 6
14 | Pgl-His-Trp-Ser-Tyr-D-Ser(L-Ara)-Leu-Arg-Pro-NH-C2 H5 | 125 | 12
15 | Pgl-His-Trp-Ser-Tyr-D-Ser(α-L-Rha)-Leu-Arg-Pro-NH-C2 H5 | 167.0 | 3
16 | Pgl-His-Trp-Ser-Tyr-D-Ser(β-D-Gal)-Leu-Arg-Pro-NH-C2 H5 | 125 | 12
17 | Pgl-His-Trp-Ser-Tyr-D-Ser(β-D-Glc-NAc)-Leu-Arg-Pro-NH-C2 H5 | 125 | < 6
18 | Pgl-His-Trp-Ser-Tyr-D-Ser(β-D-Xyl)-Leu-Arg-Pro-NH-C2 H5 | 50.0 | 6
19 | Pgl-His-Trp-Ser-Tyr-D-Ser(β-L-Xyl)-Leu-Arg-Pro-NH-C2 H5 | 10 | 6
20 | Pgl-His-Trp-Ser-Tyr-D-Ser(β-Lac)-Leu-Arg-Pro-NH-C2 H5 | 167 | 12
21 | Pgl-His-Trp-Ser-Tyr-D-Trp-Ser(Ac2 -α-D-Man)-Arg-Pro-NH-C2 H5 | 10.0 | > 24
22 | Pgl-His-Trp-Ser-Tyr-D-Trp-Ser(Ac2 -β-L-Fuc)-Arg-Pro-NH-C2 H5 | 3.3 | 200
23 | Pgl-His-Trp-Ser-Tyr-D-Trp-Ser(Ac-α-D-Man)-Arg-Pro-NH-C2 H5 | 10.0 | > 24
